Usually Ki stands for the dissociation constant of the complex between target and ligand, obtained from inhibition or displacement. Low values mean a stronger hold on the target, high ones a looser hold on the target.

This test is described as follows: Inhibition of binding of [3H]DADLE to Opioid receptor delta 1 in guinea pig membranes.
Turning to `C[C@H]1CN(C/C=C/c2ccccc2)CC[C@@]1(C)c1cccc(O)c1` [3-[(3R,4R)-3,4-Dimethyl-1-((E)-3-phenyl-allyl)-piperidin-4-yl]-phenol], affinity was put at a Ki of 322 nM. Next, `C[C@H]1CN(CC[C@H](O)C2CCCCC2)CC[C@@]1(C)c1cccc(O)c1` [3-[1-(3-Cyclohexyl-3-hydroxy-propyl)-3,4-dimethyl-piperidin-4-yl]-phenol]: 198 nM; `Cc1ccccc1/C=C/CN1CC[C@@](C)(c2cccc(O)c2)[C@@H](C)C1` [RTI-5989-25]: 142 nM; `C[C@H]1CN(C/C=C/c2ccccc2Cl)CC[C@@]1(C)c1cccc(O)c1` [3-{(3R,4R)-1-[(E)-3-(2-Chloro-phenyl)-allyl]-3,4-dimethyl-piperidin-4-yl}-phenol]: 168 nM.

For the origin of these results see BindingDB's records for doi:10.1021/jm030092d (Research Triangle Institute, 2003).
